Reference: paper PMC9055273 (RSC Advances, 2020)

Test system: bacteria
Settings: 10 μM

c1ccncc1 [pyridine]
Inhibition of bacterial growth: did not obviously inhibit bacterial growth
